Test results taken from US11389456B2, “Compounds and methods for treating oxalate-related diseases” (OxaluRx, Inc., priority 2018, dated 2022).
≈ marks a conversion by molar mass, not a printed value.

What was measured:
[1] = Solubility in phosphate buffered saline (PBS), pH 7.4; assay type: physicochemical; conditions: phosphate buffer (PBS), aqueous buffer, kinetic from dmso stock; phosphate buffered saline pH 7.4, 1% DMSO, 1 hour shaking at room temperature
Protocol: (§1) For testing compound solubility in phosphate buffered saline (PBS), compound stock solutions were prepared at 10 mM in 100% DMSO. For testing in aqueous solution, the phosphate buffer was replaced with deionized, distilled water. Eleven grams Na2HPO4 (FW: 141.96 g/mol) and 3.5 g NaH2PO4.2H2O (FW: 156.03 g/mol) was added to 1 L Milli-Q water and adjusted to a pH to 7.4 with phosphoric acid or sodium hydroxide. For incubation, media were preheated to 37° C. Eight μL aliquots of reference and test compound stock solutions (10 mM) were added into 792 μL of 100 mM phosphate buffer (pH 7.4). The final DMSO concentration was 1%. Sample tubes were shaken for 1 hour at 1000 rpm at room temperature.
(§2) The calibration curve was prepared with 300-μM spiking solution (SS) in MeOH:acetonitrile (4:1). Six μL of 10 mM compound was added in 194 μL MeOH/acetonitrile (4:1). Samples were centrifuged for 10 minutes at 12,000 rpm to precipitate undissolved particles. Supernatants were transferred to a new tube or plate and dilute 10-fold and 100-fold with 100 mM buffer. Samples were prepared for LC-MS/MS analysis by adding 5 μL each sample (undiluted, 10-fold diluted, and 100-fold diluted) and 5 μL of standard curve samples to 95 μL of acetonitrile (containing internal standard).

[2] = Solubility in aqueous solution (deionized, distilled water); assay type: physicochemical; conditions: kinetic from dmso stock, 1% DMSO, read-out: Aqueous Solubility H2O
Protocol: as §1, §2

[3] = biological target: recombinant full-length human hydroxyacid oxidase 1 (HAO1), the equivalent of hGOX (Homo sapiens (Human), UniProt Q9UJM8); assay: In-vitro human glycolate oxidase (hGOX) assay (Amplex red/HRP fluorescence); assay type: biochemical
recombinant full-length human hydroxyacid oxidase 1 (HAO1), the equivalent of hGOX, sequence (Q9UJM8 whole entry): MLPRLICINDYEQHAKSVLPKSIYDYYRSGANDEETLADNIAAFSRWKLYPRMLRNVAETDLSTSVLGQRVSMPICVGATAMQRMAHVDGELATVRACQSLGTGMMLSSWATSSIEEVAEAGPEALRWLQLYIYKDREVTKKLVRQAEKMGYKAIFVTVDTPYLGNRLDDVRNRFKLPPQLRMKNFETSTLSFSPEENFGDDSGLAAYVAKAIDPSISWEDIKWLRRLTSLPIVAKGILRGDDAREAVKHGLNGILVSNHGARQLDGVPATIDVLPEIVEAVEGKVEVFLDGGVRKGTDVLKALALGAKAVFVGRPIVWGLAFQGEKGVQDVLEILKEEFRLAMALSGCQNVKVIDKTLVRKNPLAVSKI
Protocol: Biological Activity Assay: In-Vitro Human Glycolate Oxidase (hGOX) Assay
The in-vitro glycolate oxidase assay was performed using recombinant full-length human hydroxyacid oxidase 1 (HAO1), the equivalent of hGOX. […] Purified HAO1 was dissolved in assay buffer consisting of 10 mM NaCl, 110 mM KCl, 2 mM MgCl2, 50 mM HEPES (pH 7.4) and 0.01% Triton™ X-100.

[4] = Stability in human plasma; assay type: in vitro ADME; conditions: read-out: Plasma Stability T1/2
Protocol: Stability in Human Plasma.
Stock compounds were prepared for testing the stability in human plasma. First, 0.05 M sodium phosphate and 0.07 M NaCl buffer, pH 7.4, were pre-heated. In deionized water, 14.505 g/L Na2HPO 12H2O, 1.483 g/L NaH2PO4.2H2O and 4.095 g/L NaCl were dissolved. The basic solution was titrated with the phosphoric acid to pH 7.40. Frozen plasma was quickly thawed at 37° C. The plasma was centrifuged at 3,000 rpm for 8 minutes to remove clots, then pipetted and pooled as the plasma stock for the experiment. Only plasma within the range of pH 7.4 to pH 8 was used. If higher than pH 8, the plasma was discarded. The initial pH of the plasma was not adjusted to pH 7.4 with acid or by bubbling with carbon dioxide. By using a 5% carbon dioxide incubator and PBS buffer, a pH of 7.4 will be reached after the 4-hour equilibrium dialysis time. Plasma was iced until use.
Spiking solution A with 0.5 mM testing compounds was prepared by adding 10 μL of 10 mM test compounds stock solution to 190 μL DMSO. Spiking solution B with 0.02 mM testing compound was prepared by adding 40 μL of spiking solution A to 960 μL of […] sodium phosphate buffer with 0.5% BSA. The plasma and spiking solution B were prewarmed at 37° C. for 5 minutes. Ten μL of pre-warmed spiking solution B was added into the wells designated for all the time points (5, 15, 30, 45, 60 minutes). For the 0-minute timepoint, 400 μL acetonitrile containing internal standard were added to the wells of 0-minute plate and then 90 μL plasma were added. For the other timepoints, 90 μL of pre-warmed plasma were added into the wells (0, 5, 15, 30, 45, 60 minutes) and the timing was started. At 5, 15, 30, 45, 60 minutes, 400 μL acetonitrile containing internal standard were added to the wells of corresponding plates, respectively, to stop the reaction. After quenching, the plates were shaken on a vibrator (IKA, MTS 2/4) for 10 minutes at 600 rpm and then centrifuged at 5594×g for 15 minutes (Thermo Multifuge×3R). Fifty μL of supernatant was transferred from each well into a 96-well sample plate containing 50 μL ultra-pure water (Millipore, ZMQS50F01) for LC/MS analysis.

[5] = Metabolic stability in human liver microsomal preparation; assay type: in vitro ADME; conditions: pH 7.4, human liver microsomes, NADPH, 37° C.; for half-life at 1 μM: 0-45 min, read-out: Metabolic Stability t1/2
Protocol: For evaluating the metabolic stability in human liver microsomal preparation, three buffers were prepared. Buffer A had 1.0 L of 0.1 M monobasic potassium phosphate buffer containing 1.0 mM EDTA. Buffer B had 1.0 L of 0.1 M dibasic potassium phosphate buffer containing 1.0 mM EDTA. Buffer C had 0.1 M potassium phosphate buffer, 1.0 mM EDTA, adjusted to a pH 7.4 via titrating 700 mL buffer B with buffer A. Reference compound (ketanserin) and test compounds spiking solutions (500 μM) were prepared by adding 10 μL of 10 mM DMSO stock compound solution into 190 μL acetonitrile. A volume of 1.5 μL 500 μM spiking solution and 18.75 μL 20 mg/mL human liver microsomes were added into 479.75 μL of Buffer C on ice. A stock solution of 6 mM NADPH was prepared by dissolving NADPH into Buffer C.
Wells on an assay plate were iced and filled with 30 μL 1.5-μM spiking solution containing 0.75 mg/mL microsomes solution and designated for different timepoints (0-, 5-, 15-, 30-, 45-min). For the 0-min timepoint, 135 μL acetonitrile containing internal standard were added followed by 15 μL of NADPH stock solution (6 mM). All other plates were preincubated at 37° C. for 5 minutes and 15 μL NADPH stock solution (6 mM) were added to the plates to start the reaction. At 5-min, 15-min, 30-min, and 45-min, 135 μL acetonitrile containing internal standard were added to the wells of corresponding plates, respectively, to stop the reaction. After quenching, the plates were shaken on the vibrator (IKA, MTS 2/4) for 10 min at 600 rpm and then centrifuged at 5594×g for 15 minutes (Thermo Multifuge×3R). Fifty μL supernatant from each well were transported into a 96-well sample plate containing 50 μL of ultra-pure water (Millipore, ZMQS50F01) for LC/MS analysis.

[6] = Protein binding (plasma equilibrium dialysis); assay type: in vitro ADME; conditions: 5 hours at 37° C.; for fraction unbound at 5 h, 1 μM: read-out: Protein Binding Fraction Bound (converted)
Protocol: For testing protein binding of stock compounds solubilized in DMSO, spiking solutions of test and reference compounds were prepared. Solution A (0.5 mM) was prepared by adding 10 μL of 10 mM stock solution into 190 μL of DMSO. Solution B (0.02 mM) was prepared by adding 8 μL of Solution A into 192 μL of 0.05 M sodium phosphate buffer. The final DMSO concentration in Solution B was 4%.
To prepare test and reference compounds in plasma, a 96-well plate with 380 μL aliquots of plasma in the wells designed for plasma and buffer, respectively. Twenty μL of Solution B (0.02 mM of test and reference compounds) were spiked into the pre-loaded plasma in the 96-well plate. The final test concentration is 1 μM containing 0.2% DMSO.
For dialysis sample loading a plasma again buffer system was prepared by applying aliquots of 100 μL of blank dialysis buffer to the receiver side of dialysis chambers and then applying aliquots of 100 μL of the plasma spiked with test and reference compounds to the donor side of the dialysis chamber. A 25-μL aliquot of the plasma spiked with test and reference compounds was added into a 96-well sample preparation plate as T″0″ plasma samples. Aliquots were mixed with the same volume of blank buffer (50:50, volume:volume). Samples were quenched with 200 μL of acetonitrile containing internal standard. The dialysis block was covered and a shaken at 60 rpm for 5 hours at 37° C.
After a 5-hour incubation, dialyzed samples were prepared from 25-μL aliquots from both the donor and receiver sides of the dialysis apparatus into new sample preparation plates. The aliquots were mixed with same volume of opposite matrixes. The samples were quenched with 200 μL acetonitrile containing internal standard. All 0-hour and 5-hour samples were vortexed at 600 rpm for 10 min followed by centrifugation at 5594×g for 15 minutes (Thermo Multifuge×3R). Fifty μL of the supernatants were transferred to anew 96-well plate and mixed with 50 μL Milli-Q water. The sample plate was covered and frozen at −20° C. until LC/MS/MS analysis.

| SMILES | solubility at 1 h [1] | solubility at 1 h [2] | IC50 [3] | half-life at 2 μM [4] | CLint scaled at 1 μM [5] | half-life at 1 μM [5] | recovery at 5 h, 1 μM [6] | fraction unbound at 5 h, 1 μM [6] |
| --- | --- | --- | --- | --- | --- | --- | --- | --- |
| CCCC(C)c1ccc(Oc2[nH]nnc2C(=O)O)cc1 (stereo not drawn) [Example I-273, 5-(4-(Pentan-2-yl)phenoxy)-1H-1,2,3-triazole-4-carboxylic acid] | 112 µM (≈ 30.8 µg/mL) | 108 µM (≈ 29.7 µg/mL) | 0.045 µM | 2.2 h | 2.11 L/h/kg | 0.822 h | 99.9% | 0.003 |
| O=C(O)c1nn[nH]c1Oc1cccc(C2CCC2)c1 [Example I-279, 5-(3-Cyclobutylphenoxy)-1H-1,2,3-triazole-4-carboxylic acid] | 112 µM (≈ 29.1 µg/mL) | 111 µM (≈ 28.7 µg/mL) | 0.032 µM | 2.61 h | 0.299 L/h/kg | 5.82 h | 98.2% |  |
| O=C(O)c1nn[nH]c1Oc1ccc(Cl)cc1 [Example I-033, 5-(4-Chlorophenoxy)-1H-1,2,3-triazole-4-carboxylic acid] | 121 µM (≈ 29 µg/mL) | 108 µM (≈ 25.8 µg/mL) | 0.067 µM | 1.26 h | < 0.009 L/h/kg | > 83.3 h | 123% |  |
| O=C(O)c1[nH]nnc1Oc1ccc(Cl)c(Cl)c1 [Example I-050, 5-(3,4-Dichlorophenoxy)-1H-1,2,3-triazole-4-carboxylic acid] | 120 µM (≈ 33 µg/mL) | 102 µM (≈ 28 µg/mL) | 0.012 µM | 2.35 h | 0.148 L/h/kg | 11.7 h | 71.2% |  |
| O=C(O)c1nn[nH]c1Oc1ccc(-c2ccc3ccccc3c2)cc1 [Example I-177, 5-(4-(Naphthalen-2-yl)phenoxy)-1H-1,2,3-triazole-4-carboxylic acid] | 89.3 µM (≈ 29.6 µg/mL) | 45.7 µM (≈ 15.1 µg/mL) | 0.012 µM | 1.12 h | 0.184 L/h/kg | 9.43 h | 99.3% |  |
| CC(C)=Cc1ccc(Oc2[nH]nnc2C(=O)O)cc1 [Example I-287, 5-(4-(2-Methylprop-1-en-1-yl)phenoxy)-1H-1,2,3-triazole-4-carboxylic acid] | 85.7 µM (≈ 22.2 µg/mL) | 82.5 µM (≈ 21.4 µg/mL) | 0.02 µM | 1.72 h | 0.805 L/h/kg | 2.16 h | 109% | 0.002 |
| CCC(CC)c1cccc(Oc2[nH]nnc2C(=O)O)c1 [Example I-276, 5-(3-(Pentan-3-yl)phenoxy)-1H-1,2,3-triazole-4-carboxylic acid] | 109 µM (≈ 30 µg/mL) | 103 µM (≈ 28.4 µg/mL) | 0.023 µM | 3.2 h | 0.357 L/h/kg | 4.87 h | 108% | 0.006 |
| CS(=O)(=O)c1ccc(-c2ccc(Oc3[nH]nnc3C(=O)O)cc2)cc1 [Example I-167, 5-((4′-(methylsulfonyl)-[1,1′-biphenyl]-4-yl)oxy)-1H-1,2,3-triazole-4-carboxylic acid] | 116 µM (≈ 41.9 µg/mL) | 112 µM (≈ 40.4 µg/mL) | 0.008 µM | 6.19 h | 0.102 L/h/kg | 17 h | 95.5% |  |
| O=C(O)c1[nH]nnc1Oc1ccc(C2CCCCC2)cc1 [Example I-266, 5-(4-Cyclohexylphenoxy)-1H-1,2,3-triazole-4-carboxylic acid] | 96.5 µM (≈ 27.7 µg/mL) | 108 µM (≈ 31 µg/mL) | 0.03 µM | 3.11 h | 1.59 L/h/kg | 1.1 h | 101% |  |
